# Values of other authors in US20230310471A1, “METHODS, DEVICES, AND SYSTEMS FOR TREATING LENS PROTEIN AGGREGATION DISEASES” (priority 2022, published 2023).
# System: vimentin
# Settings: background statement, no experimental details printed
row,Structure (SMILES),vimentin degradation
1,"O=S(=O)(F)Cc1ccccc1 [PMSF, phenylmethylsulfonyl fluoride]",decrease vimentin degradation
2,CC(=O)N[C@@H](CC(C)C)C(=O)N[C@@H](CC(C)C)C(=O)N[C@H](C=O)CCCNC(=N)N [leupeptin],decrease vimentin degradation
